Assay results from the supplement of paper PMC10883282.
± gives the standard deviation of the averaged measurements.

How the values were obtained:
Experiment in all cases: relative viability vs DMSO control (72 h) (fraction); higher = more viable cells
HS729 = tested on: HS729
Outline: (§1)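 Densities for seeding sarcoma cell lines into 384-well plates were set to give 80–90% confluence. After 24 h, 2.5 µl of serially diluted compound from source plates of 10 mM to 0.0002 mM went in, and plates stayed 72 h at 37 °C in 5% CO2 with 0.1% DMSO vehicle and a 5 µM positive control. Percent growth from ATPLite readings, averaged over up to triplicate wells, served as relative viability, rescaled so 1 means full and 0 means none.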

SK-ES-1 = tested on: SK-ES-1
Outline: as §1

A204 = tested on: A204
Outline: as §1

SYO-1 = tested on: SYO-1
Outline: as §1

RD = tested on: RD
Outline: as §1

KHOS-NP = tested on: KHOS-NP
Outline: as §1

SW684 = tested on: SW684
Outline: as §1

G401 = tested on: G401
Outline: as §1

VA-ES-BJ = tested on: VA-ES-BJ
Outline: as §1

SW872 = tested on: SW872
Outline: as §1

MES-SA = tested on: MES-SA
Outline: as §1

SK-LMS-1 = tested on: SK-LMS-1
Outline: as §1

Cc1cccc(-c2nn3c(c2-c2ccnc4ccc(C(N)=O)cc24)CCC3)n1 [Galunisertib]
Details	relative viability
A204, 0.00017 µM	1.01 ± 0.021
A204, 0.00051 µM	1.04 ± 0.028
A204, 0.00152 µM	0.99 ± 0.023
A204, 0.00457 µM	1.03 ± 0.036
A204, 0.01372 µM	0.984 ± 0.044
A204, 0.04115 µM	1 ± 0.03
A204, 0.1235 µM	1.01 ± 0.072
A204, 0.3704 µM	1.02 ± 0.051
A204, 1.111 µM	0.996 ± 0.05
A204, 3.333 µM	0.996 ± 0.067
A204, 10 µM	0.936 ± 0.05
G401, 0.00017 µM	0.977 ± 0.053
G401, 0.00051 µM	0.93 ± 0.074
G401, 0.00152 µM	1.01 ± 0.053
G401, 0.00457 µM	0.959 ± 0.068
G401, 0.01372 µM	0.974 ± 0.094
G401, 0.04115 µM	0.964 ± 0.028
G401, 0.1235 µM	0.984 ± 0.054
G401, 0.3704 µM	0.971 ± 0.067
G401, 1.111 µM	0.965 ± 0.073
G401, 3.333 µM	0.9721 ± 0.0059
G401, 10 µM	0.979 ± 0.046
HS729, 0.00017 µM	0.993 ± 0.028
HS729, 0.00051 µM	0.933 ± 0.032
HS729, 0.00152 µM	0.948 ± 0.029
HS729, 0.00457 µM	0.897 ± 0.028
HS729, 0.01372 µM	0.901 ± 0.063
HS729, 0.04115 µM	0.892 ± 0.085
HS729, 0.1235 µM	0.898 ± 0.07
HS729, 0.3704 µM	0.836 ± 0.029
HS729, 1.111 µM	0.794 ± 0.044
HS729, 3.333 µM	0.756 ± 0.023
HS729, 10 µM	0.749 ± 0.013
KHOS-NP, 0.00017 µM	1.088 ± 0.0085
KHOS-NP, 0.00051 µM	1.09 ± 0.015
KHOS-NP, 0.00152 µM	1.066 ± 0.0082
KHOS-NP, 0.00457 µM	1.06 ± 0.042
KHOS-NP, 0.01372 µM	1.06 ± 0.028
KHOS-NP, 0.04115 µM	1.07 ± 0.034
KHOS-NP, 0.1235 µM	1.03 ± 0.019
KHOS-NP, 0.3704 µM	1.04 ± 0.021
KHOS-NP, 1.111 µM	0.999 ± 0.025
KHOS-NP, 3.333 µM	0.978 ± 0.017
KHOS-NP, 10 µM	0.976 ± 0.029
MES-SA, 0.00017 µM	0.925 ± 0.06
MES-SA, 0.00051 µM	0.922 ± 0.029
MES-SA, 0.00152 µM	0.916 ± 0.053
MES-SA, 0.00457 µM	0.897 ± 0.029
MES-SA, 0.01372 µM	0.911 ± 0.027
MES-SA, 0.04115 µM	0.91 ± 0.026
MES-SA, 0.1235 µM	0.9002 ± 0.0083
MES-SA, 0.3704 µM	0.891 ± 0.042
MES-SA, 1.111 µM	0.888 ± 0.022
MES-SA, 3.333 µM	0.863 ± 0.033
MES-SA, 10 µM	0.873 ± 0.029
RD, 0.00017 µM	1.06 ± 0.045
RD, 0.00051 µM	1.07 ± 0.019
RD, 0.00152 µM	1.079 ± 0.01
RD, 0.00457 µM	1.095 ± 0.0091
RD, 0.01372 µM	1.081 ± 0.01
RD, 0.04115 µM	1.09 ± 0.011
RD, 0.1235 µM	1.071 ± 0.0019
RD, 0.3704 µM	1.05 ± 0.014
RD, 1.111 µM	1.08 ± 0.032
RD, 3.333 µM	1.12 ± 0.025
RD, 10 µM	1.13 ± 0.029
SK-ES-1, 0.00017 µM	1.02 ± 0.057
SK-ES-1, 0.00051 µM	1.03 ± 0.066
SK-ES-1, 0.00152 µM	0.998 ± 0.051
SK-ES-1, 0.00457 µM	0.978 ± 0.063
SK-ES-1, 0.01372 µM	1.06 ± 0.11
SK-ES-1, 0.04115 µM	1.02 ± 0.054
SK-ES-1, 0.1235 µM	0.946 ± 0.046
SK-ES-1, 0.3704 µM	0.996 ± 0.11
SK-ES-1, 1.111 µM	0.974 ± 0.076
SK-ES-1, 3.333 µM	0.96 ± 0.041
SK-ES-1, 10 µM	0.959 ± 0.07
SK-LMS-1, 0.00017 µM	1.04 ± 0.025
SK-LMS-1, 0.00051 µM	1 ± 0.032
SK-LMS-1, 0.00152 µM	1.01 ± 0.034
SK-LMS-1, 0.00457 µM	0.982 ± 0.042
SK-LMS-1, 0.01372 µM	1.01 ± 0.03
SK-LMS-1, 0.04115 µM	0.982 ± 0.029
SK-LMS-1, 0.1235 µM	1.01 ± 0.011
SK-LMS-1, 0.3704 µM	1 ± 0.026
SK-LMS-1, 1.111 µM	1 ± 0.031
SK-LMS-1, 3.333 µM	0.953 ± 0.023
SK-LMS-1, 10 µM	0.965 ± 0.031
SW684, 0.00017 µM	1.08 ± 0.02
SW684, 0.00051 µM	1.09 ± 0.072
SW684, 0.00152 µM	1.08 ± 0.061
SW684, 0.00457 µM	1.13 ± 0.059
SW684, 0.01372 µM	1.09 ± 0.053
SW684, 0.04115 µM	1.11 ± 0.055
SW684, 0.1235 µM	1.09 ± 0.015
SW684, 0.3704 µM	1.08 ± 0.035
SW684, 1.111 µM	1.05 ± 0.032
SW684, 3.333 µM	1.08 ± 0.021
SW684, 10 µM	1.09 ± 0.055
SW872, 0.00017 µM	1.05 ± 0.017
SW872, 0.00051 µM	1.05 ± 0.024
SW872, 0.00152 µM	1 ± 0.036
SW872, 0.00457 µM	1.02 ± 0.03
SW872, 0.01372 µM	0.989 ± 0.02
SW872, 0.04115 µM	0.991 ± 0.05
SW872, 0.1235 µM	0.956 ± 0.021
SW872, 0.3704 µM	0.96 ± 0.037
SW872, 1.111 µM	1 ± 0.022
SW872, 3.333 µM	1.01 ± 0.033
SW872, 10 µM	1 ± 0.087
SYO-1, 0.00017 µM	0.972 ± 0.068
SYO-1, 0.00051 µM	0.942 ± 0.055
SYO-1, 0.00152 µM	0.913 ± 0.04
SYO-1, 0.00457 µM	0.898 ± 0.014
SYO-1, 0.01372 µM	0.867 ± 0.0097
SYO-1, 0.04115 µM	0.824 ± 0.012
SYO-1, 0.1235 µM	0.783 ± 0.028
SYO-1, 0.3704 µM	0.752 ± 0.06
SYO-1, 1.111 µM	0.738 ± 0.064
SYO-1, 3.333 µM	0.685 ± 0.053
SYO-1, 10 µM	0.671 ± 0.042
VA-ES-BJ, 0.00017 µM	1.04 ± 0.038
VA-ES-BJ, 0.00051 µM	1 ± 0.014
VA-ES-BJ, 0.00152 µM	1.03 ± 0.02
VA-ES-BJ, 0.00457 µM	0.9974 ± 0.0032
VA-ES-BJ, 0.01372 µM	0.983 ± 0.021
VA-ES-BJ, 0.04115 µM	0.986 ± 0.029
VA-ES-BJ, 0.1235 µM	1.01 ± 0.045
VA-ES-BJ, 0.3704 µM	1.01 ± 0.023
VA-ES-BJ, 1.111 µM	1.07 ± 0.047
VA-ES-BJ, 3.333 µM	1.08 ± 0.039
VA-ES-BJ, 10 µM	1.11 ± 0.035
